# Experimental data: patent US20140363818A1, “EGFR and PAR2 Regulation of Intestinal Permeability” (UNIVERSITY OF MARYLAND, BALTIMORE, priority 2009, published 2014)
# Entries after “also recorded” stand apart in the source; their conditions may differ.
# T1: PAR2 (Mus musculus, UniProt P55086)
# T1 sequence (P55086 26-399): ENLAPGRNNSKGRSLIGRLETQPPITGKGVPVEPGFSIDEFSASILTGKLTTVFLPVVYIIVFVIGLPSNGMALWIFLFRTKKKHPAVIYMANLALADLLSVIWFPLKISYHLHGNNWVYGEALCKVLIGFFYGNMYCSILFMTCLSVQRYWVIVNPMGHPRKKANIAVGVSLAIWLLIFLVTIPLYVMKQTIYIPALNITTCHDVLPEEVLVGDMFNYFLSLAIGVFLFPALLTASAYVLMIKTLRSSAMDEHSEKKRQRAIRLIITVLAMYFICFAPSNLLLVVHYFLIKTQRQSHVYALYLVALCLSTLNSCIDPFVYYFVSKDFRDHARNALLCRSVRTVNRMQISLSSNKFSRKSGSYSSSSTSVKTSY
# B1: two-chain HP2: Cleaved two-chain mature HP2 (α2 and β chains) obtained by trypsin digestion of single chain zonulin (protein)
# chain 1: VDSGNDVTDIADDGCPKPPEIAHGYVEHSVRYQCKNYYKLRTEGDGVYTLNDKKQWINKAVGDKLPECEADDGCPKPPEIAHGYVEHSVRYQCKNYYKLRTEGDGVYTLNNEKQWINKAVGDKLPECEAVCGKPKNPANPVQR
# chain 2: ILGGHLDAKGSFPWQAKMVSHHNLTTGATLINEQWLLTTAKNLFLNHSENATAKDIAPTLTLYVGKKQLVEIEKVVLHPNYSQVDIGLIKLKQKVSVNERVMPICLPSKDYAEVGRVGYVSGWGRNANFKFTDHLKYVMLPVADQDQCIRHYEGSTVPEKKTPKSPVGVQPILNEHTFCAGMSKYQEDTCYGDAGSAFAVHDLEEDTWYATGILSFDKSCAVAEYGVYVKVTSIQDWVQKTIAENHHHHHH
# Legend:
# [1] = system: C57BL/6 WT murine small intestine segments; assay: Ex vivo intestinal permeability (TEER) in the microsnapwell system; assay type: cell-based, mouse; details: for TEER change / intestinal permeability, dose-response experiment: C57BL/6 WT segments, zonulin 5-50 μg/well, trypsin-cleaved pre-HP2 50 μg/well
# Description: The effect of zonulin/pre-HP2 on ex vivo intestinal permeability was monitored in the microsnapwell system as described (3). Briefly, segments of small intestine from C57BL/6 WT mice were mounted onto the microsnapwell system, and their luminal side was exposed for 30 min to medium alone or to the medium containing increasing concentrations of the purified recombinant zonulin. TEER was measured at time 0 and at 30-min time intervals for a period of 2 h using a planar electrode (Endohm SNAP electrode attached to an Evom-G WPI analyzer; World Precision Instruments) and expressed in Ω/cm^2 after normalization. […] In another set of experiments, zonulin was tested both in C57BL/6 WT and PAR2−/− mice. […]
# Recombinant pre-HP2 (from now on defined as zonulin) was applied to WT C57BL/6 murine small intestine segments mounted in microsnapwells.
# [2] = system: 129/SvEv WT mice; assay: In vivo gastrointestinal permeability with sugar probes (lactulose/mannitol, sucrose); parameters: species or system mouse; details: for small intestinal permeability (lacman ratio) vs BSA-treated controls / gastroduodenal permeability (sucrose fractional excretion) vs BSA-treated controls: 170 mg/mouse [sic], gavage, challenge day vs 3 days before; for small intestinal permeability (lacman ratio) vs BSA-treated controls: FIG. 4A; for gastroduodenal permeability (sucrose fractional excretion) vs BSA-treated controls: FIG. 4B
# Description: They were acclimatized to the experimental techniques for 3 wk, by fasting the animals for 3 h, gavaging the animals with a sugar probe, and placing them in metabolic cages twice each wk. On the day of protein challenge, the animals received either 170 micrograms of the purified single-chain zonulin in a 60 microliter solution or a similar amount of purified 2-chain cleaved HP2, together with the sugar gavage as described (4). […] Two days after the drug challenge day, mice were again placed in metabolic cages to measure their recovery from the treatment.
# To establish whether zonulin might alter intestinal permeability in vivo, mice were gavaged with the single chain recombinant pre-HP2 protein (170 mg/mouse), and gastroduodenal and small intestinal permeability tested using specific sugar probes (sucrose and lactulose/mannitol, respectively) as described (14).
# [3] = target: T2, EGFR (Homo sapiens, UniProt P00533); assay: EGFR phosphorylation in serum-starved Caco-2 cells (immunoprecipitation / Western blot); assay type: cell-based; details: for EGFR phosphorylation compared with single chain zonulin: two-chain mature HP2 10 ml/ml as printed, Caco-2, FIG. 5D
# T2 construct: serum-starved, high EGFR-expressing Caco-2 cells; endogenous in cells; host or cells: Caco-2
# Description: PAR2 expression in Caco-2 cells was silenced using 2 different PAR2 siRNAs [HSS103471 and HSS103473 (50 nM each); Invitrogen].
# The effect of zonulin on ex vivo and in vivo intestinal permeability was performed as described (8, 14) and reported above. To determine whether zonulin can activate EGFR, increasing concentrations of either zonulin or two-chain mature HP2 were added for increasing exposure times to serum-starved, high EGFR-expressing Caco-2 cells. The cells were lysed and processed for WB with anti-phospho EGFR (Y1068) Ab (Cell Signaling Technol. Inc.) as reported (40).
# To determine whether zonulin can activate EGFR, increasing concentrations of baculovirus-derived, recombinant zonulin were added to Caco-2 intestinal epithelial cells. The cells were lysed, immunoprecipitated with anti-EGFR Ab, and processed for phosphotyrosine immunoblotting (PY-Plus).
# [4] = target: T1, PAR2; details: demonstrated in WT, but not PAR2−/− mice; cited from earlier work
molecule,measurement,setting,value
"COc1cc2ncnc(Nc3cccc(Cl)c3)c2cc1OC [AG1478, reference compound]",effect on zonulin-induced drop in TEER,"[1]; 5 μM AG1478 with zonulin 10 μg/well, C57BL/6 WT, 90 min, FIG. 5C",abolished TEER reduction; also recorded: prevented
"zonulin: Recombinant human haptoglobin-2 precursor (pre-HP2), uncleaved single chain, expressed in a baculovirus system",small intestinal permeability (lacman ratio) vs BSA-treated controls,[2],increases
same,small intestinal permeability (lacman ratio) vs BSA-treated controls,[2]; listed as Zonulin/preHP2,increased
same,gastroduodenal permeability (sucrose fractional excretion) vs BSA-treated controls,[2],increases
same,gastroduodenal permeability (sucrose fractional excretion) vs BSA-treated controls,[2]; listed as Zonulin/preHP2,increased
same,time for small intestinal permeability to return to pre-challenge values,"[2]; after zonulin challenge, FIG. 4C",≤ 48 h
same,time for gastroduodenal permeability to return to pre-challenge values,"[2]; after zonulin challenge, FIG. 4D",≤ 48 h
same,"TEER change / intestinal permeability, dose-response experiment",[1]; FIG. 3,increased intestinal permeability in C57BL/6 WT mice in a dose-and time-dependent manner
same,TEER change in wild-type intestinal segments,"[1]; C57BL/6 WT, 10 μg/well, baseline vs 90 min, FIG. 5C, 6B",decreased TEER; also recorded: significant drop in TEER
same,TEER change in PAR2−/− intestinal segments,"[1]; PAR2−/− mice, 10 mg zonulin as printed, time 0 vs 90 min, FIG. 6B",failed to reduce TEER; also recorded: did not increase intestinal permeability
same,concentration at which TEER decreased (increased permeability),"[1]; added to mucosal (luminal) aspect of WT C57BL/6 small intestine segments, FIG. 3",≥ 40 µg/mL
same,concentration inducing significant drop in TEER,"[1]; luminal side, C57BL/6 WT, starting at 60 min post-exposure, tested 5, 10, 25, 50 μg/well, FIG. 3",10 μg/well
same,concentration at which tyrosine phosphorylation of EGFR increased,"[3]; Caco-2 cells, anti-EGFR IP, PY-Plus blot, FIG. 5A",≥ 3 mg/mL
same,concentration at which the dose-dependent increase in EGFR phosphorylation reached a plateau,"[3]; serum-starved Caco-2 cells, FIG. 5A",3 ml/ml
same,EGFR phosphorylation vs media,"[3]; zonulin 10 ml/well as printed, alone, serum-starved Caco-2, FIG. 5B",increase in EGFR phosphorylation
FCIGRL [AT1002],changes in TEER,[4],PAR2-dependent changes in TEER
B1,small intestinal permeability (lacman ratio) vs BSA-treated controls,[2],failed to alter; also recorded: no changes
same,gastroduodenal permeability (sucrose fractional excretion) vs BSA-treated controls,[2],failed to alter; also recorded: no changes
same,"TEER change / intestinal permeability, dose-response experiment",[1]; FIG. 3,no consistent TEER changes
same,EGFR phosphorylation compared with single chain zonulin,[3],dramatically reduced
same,EGFR phosphorylation compared with single chain zonulin,[3]; listed as two-chain mature HP2,significantly reduced
